In US20240189279A1, “IMMUNOMODULATORY COMPOSITIONS AND METHODS OF USE THEREOF” (THE TEXAS A&M UNIVERSITY SYSTEM, priority 2022, published 2024):

Experiment: I3A levels in fecal material, liver and serum after I3A in drinking water
Type: in vivo, mice (male B6 129SF1/J)
Settings: WD and sugar water containing I3A vs same WD and SW without I3A
Source text: Animal experiments. Male B6 129SF1/J mice at 6 weeks of age were obtained from Jackson Laboratories (Bar Harbor, ME). Mice were acclimatized to the animal facility for one week. At the start of the experiment, mice were randomly divided into four groups (n=10 for each group). Three of the four groups were fed ad libitum a Western diet (WD) with 40% Kcal from fat and containing 0.15% cholesterol (D12079B, Research Diets) and a sugar water (SW) solution (23.1 g/L d-fructose+18.9 g/L d-glucose) as previously described (DIAMOND model (15)). […] The WD group was fed WD and drank sugar water. […] The treatments were continued for another 8 weeks. Water bottles containing SW and I3A or only SW were changed every other day. A fourth group of mice was fed a low-fat control diet (D12450B, Research Diets) and normal water for 16 weeks (CN group) (FIG. 9A). FIG. 9A presents the study design. Mice belonging to the same treatment group were housed together (5 mice/cage). Mice were maintained on 12:12-h light-dark cycles. All procedures were performed in accordance with Texas A&M University Health Sciences Center Institutional Animal Care and Use Committee guidelines under an approved animal use protocol (AUP #2017-0145).
Sample collection. […] FIG. 9B presents the sampling scheme. All fecal pellets were flash frozen in liquid nitrogen after collection. […]

O=C([O-])Cc1c[nH]c2ccccc12.[Na+] [I3A, Indole-3-acetate sodium salt]
I3A levels in fecal material, liver and serum: increased I3A levels in fecal material, the liver and serum
